Measurements published in article PMC4245125, “Pharmacological and Behavioral Characterization of D-473, an Orally Active Triple Reuptake Inhibitor Targeting Dopamine, Serotonin and Norepinephrine Transporters” (PLoS ONE, 2014).
Counter-ions that a name gives are not always drawn.

Legend:
[1] = Plasma concentration after oral administration in rats; type: in vivo; conditions: rat, male Sprague-Dawley rats, 25 mg/kg PO
Procedure: Sample preparation: Following oral administration of 25 mg/kg of D-473 and D-142 in male Sprague Dawley rats, the blood samples were collected at different time points over a period of 8 h for analysis. Concentrations of D-473 and D-142 in plasma were quantitated using a set of calibration standards prepared in blank matrix that were processed in parallel. Plasma concentration evaluation was carried out by the CRO, Absorption System, PA. Additionally, brain uptake studies of D-473 were carried out at three different time points (2, 4 and 6 h) following oral administration of 25 mg/kg D-473. Concentrations of D-473 in rat brain were quantitated using a set of calibration standards which were prepared in blank brain homogenate matrix on the day of analysis. The standard samples (5, 10, 25, 100, 500, 1000, and 2000 ng/mL) for calibration curve were prepared by spiking 45 µL of blank rat plasma with 5 µL of appropriate working dilution of D-473 in acetonitrile. The bioanalytical sample preparation for brain and plasma analysis followed by quantification of test compounds entailed the addition of 250 µL acetonitrile to every 50 µL of standard and analyte samples to precipitate tissue plasma proteins and tissue macromolecules. These mixtures were then vortexed for 15 min at 1400 rpm. The suspensions were then clarified by centrifugation (18000 g, 10 min at 4°C), and each 150 µL of the resulting supernatant was mixed well with 50 µL 0.1% formic acid in 50/50 (v/v) ACN/water solution for about 10 sec. The mixtures were again centrifuged (18000 g, 10 min at 4°C) before 100 µL of clear supernatant were transferred to auto sampler vials for LC-MS/MS analysis.
The analysis of blood sample was carried out by the CRO Absorption system, PA. Briefly, the analysis was carried out by Waters Acquity UPLC equipped with PE Sciex API4000 mass spectrometer. Reverse phase Waters Acquity BEH Phenyl Column 1.7micron, 2.1×30 mm column was used for analysis. 5 µL of sample solutions were injected with a flow rate 1 mL/min and the samples were eluted with gradient elution using solvent A (10% buffer: 90% water) and solvent B (10% buffer: 90% acetonitrile). Buffer used was 40 mM Ammonium Formate Buffer, pH 3.5. Pharmacokinetic prarameters were estimated by a non-compartmental model using WinNonlin v5.2.1 software.

[2] = found earlier by the authors; no reference given; cited from earlier work
[3] = biological target: hNET (Homo sapiens, UniProt P23975); test: Inhibition of [3H]DA uptake by cloned human NET in HEK293 cells; conditions: NET uptake, Ki, nM [3H]DA, HEK293 cells expressing hNET; average±S.E.M., 3 to 10 determinations
hNET, sequence (P23975 whole entry): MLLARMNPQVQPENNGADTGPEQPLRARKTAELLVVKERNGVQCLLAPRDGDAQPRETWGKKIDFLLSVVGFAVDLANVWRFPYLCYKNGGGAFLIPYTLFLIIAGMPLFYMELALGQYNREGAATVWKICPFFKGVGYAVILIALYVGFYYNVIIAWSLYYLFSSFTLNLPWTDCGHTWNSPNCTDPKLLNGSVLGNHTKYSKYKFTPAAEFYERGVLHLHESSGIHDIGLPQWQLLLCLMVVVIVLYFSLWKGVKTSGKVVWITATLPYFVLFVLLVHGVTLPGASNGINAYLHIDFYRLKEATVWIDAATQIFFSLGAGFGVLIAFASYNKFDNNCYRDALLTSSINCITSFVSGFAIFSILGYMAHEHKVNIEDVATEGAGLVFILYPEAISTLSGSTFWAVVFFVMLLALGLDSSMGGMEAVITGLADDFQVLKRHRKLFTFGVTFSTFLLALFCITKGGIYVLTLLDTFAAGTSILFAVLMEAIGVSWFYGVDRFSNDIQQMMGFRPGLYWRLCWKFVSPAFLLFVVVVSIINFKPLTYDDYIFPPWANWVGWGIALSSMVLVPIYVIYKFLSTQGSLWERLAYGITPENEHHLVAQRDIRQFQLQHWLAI

[4] = biological target: hDAT (Homo sapiens, UniProt Q01959); test: Inhibition of [3H]DA uptake by cloned human DAT in HEK293 cells; conditions: nM, HEK293 cells expressing hDAT, average±S.E.M., 3 to 10 determinations
hDAT, sequence (Q01959 whole entry): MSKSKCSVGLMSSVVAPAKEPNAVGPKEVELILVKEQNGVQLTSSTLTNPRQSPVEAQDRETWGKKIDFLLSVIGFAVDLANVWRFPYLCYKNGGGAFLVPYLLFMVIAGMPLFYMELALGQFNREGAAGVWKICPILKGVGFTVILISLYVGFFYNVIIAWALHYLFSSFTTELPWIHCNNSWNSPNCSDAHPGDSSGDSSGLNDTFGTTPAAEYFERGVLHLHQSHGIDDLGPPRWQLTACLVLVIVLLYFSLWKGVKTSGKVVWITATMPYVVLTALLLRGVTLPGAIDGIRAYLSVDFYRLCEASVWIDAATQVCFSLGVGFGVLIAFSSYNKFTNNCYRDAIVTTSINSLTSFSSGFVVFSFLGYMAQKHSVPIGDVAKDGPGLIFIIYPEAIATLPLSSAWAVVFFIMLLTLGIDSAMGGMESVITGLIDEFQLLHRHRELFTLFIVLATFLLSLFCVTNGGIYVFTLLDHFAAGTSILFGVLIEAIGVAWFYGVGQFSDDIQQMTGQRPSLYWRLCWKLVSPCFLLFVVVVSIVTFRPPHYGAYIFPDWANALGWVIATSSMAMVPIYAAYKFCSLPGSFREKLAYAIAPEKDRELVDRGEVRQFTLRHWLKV

[5] = biological target: hSERT (Homo sapiens, UniProt P31645); test: Inhibition of [3H]5-HT uptake by cloned human SERT in HEK293 cells
hSERT, sequence (P31645 whole entry): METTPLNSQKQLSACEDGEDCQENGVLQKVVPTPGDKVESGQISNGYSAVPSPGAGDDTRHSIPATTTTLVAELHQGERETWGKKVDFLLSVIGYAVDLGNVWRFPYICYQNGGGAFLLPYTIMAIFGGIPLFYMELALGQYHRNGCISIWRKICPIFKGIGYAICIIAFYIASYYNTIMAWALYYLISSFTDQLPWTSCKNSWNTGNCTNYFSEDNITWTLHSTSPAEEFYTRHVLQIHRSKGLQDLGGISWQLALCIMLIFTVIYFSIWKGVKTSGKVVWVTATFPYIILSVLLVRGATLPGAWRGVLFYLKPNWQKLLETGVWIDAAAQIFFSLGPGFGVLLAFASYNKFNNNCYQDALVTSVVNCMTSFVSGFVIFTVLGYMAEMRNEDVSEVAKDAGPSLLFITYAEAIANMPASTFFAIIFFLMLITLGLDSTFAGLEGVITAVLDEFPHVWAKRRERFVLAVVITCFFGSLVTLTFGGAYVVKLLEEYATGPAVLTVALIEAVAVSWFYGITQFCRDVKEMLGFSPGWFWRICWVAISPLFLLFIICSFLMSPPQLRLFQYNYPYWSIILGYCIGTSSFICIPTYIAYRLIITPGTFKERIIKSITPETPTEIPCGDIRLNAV

[6] = system: locomotor activity (horizontal activity); test: Locomotor activity in rats; type: in vivo; conditions: rat; 5 mg/kg i.p.; vs vehicle (P<0.001)
Procedure: Sprague Dawley Rats were tested at 25 mg/kg oral dose of D-473 to monitor changes in any locomotor activity in acrylic Auto-Track/Opto-Varimex-4 System (Columbus Instrument; Columbus, Ohio). The purpose was to evaluate locomotor activity of the same doses of drug that were used in the forced swim test. Rats were acclimated in the test chambers for 1 h prior to oral administration of D-473. Locomotor activity of the drug was measured for a total of two hour post administration of the drug which corresponded to the time of measurement in the forced swimming experiment. GBR 12909 was studied as a control drug known to stimulate and was administered i.p. as in published studies; vehicle was orally administered.

[7] = system: dialysate DOPAC; set-up: method as in PMID 2477259; conditions: DAT releaser; cited from earlier work

For `COc1ccc(CN[C@@H]2CO[C@H](C(c3ccc(F)cc3)c3ccc(F)cc3)C[C@H]2O)cc1` (as salt: hydrochloride) [Compound D-473, (2S,4R,5R)-2-(bis(4-fluorophenyl)methyl)-5-((4-methoxybenzyl)amino)tetrahydro-2H-pyran-4-ol], the melting point was 190 to 205 °C.
In the case of `COc1ccc(CN[C@@H]2CO[C@H](C(c3ccccc3)c3ccccc3)C[C@H]2O)cc1` [Compound D-142], the Cmax ([1]; 3% HPßCD in water, read-out: Average maximum plasma concentration, Cmax) is given as 125 ± 36.6 ng/mL, the half-life ([1]; read-out: Average half-life (converted)) is given as 2.5 ± 0.96 h and the Oral bioavailability [2] is given as “poor oral bioavailability”. It also gave a Ki [3] of 21.2 ± 4.3 nM, a Ki [4] of 179 ± 27 nM and a Ki [5] of 5.43 ± 1.4 nM.
With `Fc1ccc(C(OCCN2CCN(CCCc3ccccc3)CC2)c2ccc(F)cc2)cc1` [GBR 12909, 1-[2-[bis(4-fluorophenyl)methoxy]ethyl]-4-[3-phenylpropyl]piperazine, reference compound] the “Locomotor activity (horizontal activity)” value [6] was “significant rise”.
In the case of `CC(N)Cc1ccccc1` (stereo not drawn) [amphetamine], the “Reductions in DOPAC” value [7] is listed as about 65%.
